Laboratory results from patent US9527832B2, “Substituted condensed pyrimidine compounds” (GRÜNENTHAL GMBH, priority 2013, dated 2016).

Biological target: T1, human PDE4B1 (Homo sapiens, UniProt Q07343)
T1 construct: host or cells: Sf9 cells
Assay: cAMP HTRF assay to determine the activity of hPDE4B1
Type: biochemical
Conditions: for inhibition at 1 µM: Percentage inhibition of PDE4B at 1 μM test concentration; for IC50: dose response measurements with eight concentrations, reported as ranges, read-out: IC50
Procedure, shortened: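 Sf9-expressed recombinant human PDE4B1 (4.8 U) in Tris-HCl/MgCl2/DTT/Tween 20 buffer pH 7.8, with cAMP at 40 nM final, 30 min at room temperature. Reaction stopped with IBMX 1 mM; remaining cAMP detected by HTRF (665/620 nm ratio). IC50 from eight-point dose-response, n=2.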

T1 sequence (Q07343 whole entry): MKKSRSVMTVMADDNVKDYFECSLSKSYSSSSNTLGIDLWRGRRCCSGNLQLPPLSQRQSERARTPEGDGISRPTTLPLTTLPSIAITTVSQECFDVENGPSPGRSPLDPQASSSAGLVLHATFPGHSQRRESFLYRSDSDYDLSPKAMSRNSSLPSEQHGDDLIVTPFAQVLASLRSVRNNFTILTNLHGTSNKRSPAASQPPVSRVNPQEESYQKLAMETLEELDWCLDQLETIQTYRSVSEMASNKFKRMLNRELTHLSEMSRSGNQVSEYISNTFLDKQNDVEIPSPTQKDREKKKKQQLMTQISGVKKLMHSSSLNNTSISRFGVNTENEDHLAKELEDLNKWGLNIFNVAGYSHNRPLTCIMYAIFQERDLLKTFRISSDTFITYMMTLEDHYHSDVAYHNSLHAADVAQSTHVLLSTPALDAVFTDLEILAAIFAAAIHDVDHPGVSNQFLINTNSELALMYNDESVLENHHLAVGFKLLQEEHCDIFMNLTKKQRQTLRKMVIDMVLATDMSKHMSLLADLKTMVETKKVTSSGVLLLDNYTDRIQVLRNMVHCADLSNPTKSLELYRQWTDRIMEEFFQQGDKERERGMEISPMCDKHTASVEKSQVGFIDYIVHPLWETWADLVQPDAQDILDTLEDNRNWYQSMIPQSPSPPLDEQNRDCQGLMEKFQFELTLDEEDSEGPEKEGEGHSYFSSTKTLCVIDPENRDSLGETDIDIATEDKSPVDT

inhibition at 1 µM [%]	IC50 [nM]	Compound
54	100 to 1000	CC(C)NC(=O)COc1ccc2c(c1)N(c1nc(-c3ccc(Cl)s3)nc3c1CS(=O)(=O)C3)CC2 [Compound No. 2-54, 2-((1-(2-(5-Chlorothiophen-2-yl)-6,6-dioxido-5,7-dihydrothieno[3,4-d]pyrimidin-4-yl)indolin-6-yl)oxy)-N-isopropylacetamide]
52	–	CCNC(=O)COc1ccc2c(c1)N(c1nc(-c3ccc(Cl)s3)nc3c1CS(=O)(=O)C3)CC2 [Compound No. 2-55, 2-((1-(2-(5-Chlorothiophen-2-yl)-6,6-dioxido-5,7-dihydrothieno[3,4-d]pyrimidin-4-yl)indolin-6-yl)oxy)-N-ethylacetamide]
70	100 to 1000	CNC(=O)COc1ccc2c(c1)N(c1nc(-c3ccc(Cl)s3)nc3c1CS(=O)(=O)C3)CC2 [Compound No. 2-58, 2-((1-(2-(5-Chlorothiophen-2-yl)-6,6-dioxido-5,7-dihydrothieno[3,4-d]pyrimidin-4-yl)indolin-6-yl)oxy)-N-methylacetamide]
76	100 to 1000	NC(=O)COc1ccc2c(c1)N(c1nc(-c3ccc(Cl)s3)nc3c1CS(=O)(=O)C3)CC2 [Compound No. 2-59, 2-((1-(2-(5-Chlorothiophen-2-yl)-6,6-dioxido-5,7-dihydrothieno[3,4-d]pyrimidin-4-yl)indolin-6-yl)oxy)acetamide]

The remaining lines, values behind:

Compound	inhibition at 1 µM [%]	IC50 [nM]
CN(C(=O)COc1ccc2c(c1)N(c1nc(-c3ccc(Cl)s3)nc3c1CS(=O)(=O)C3)CC2)C1CC1 [Compound No. 2-56, 2-((1-(2-(5-Chlorothiophen-2-yl)-6,6-dioxido-5,7-dihydrothieno[3,4-d]pyrimidin-4-yl)indolin-6-yl)oxy)-N-cyclopropyl-N-methylacetamide]	68	100 to 1000
CN(CC1CC1)C(=O)COc1ccc2c(c1)N(c1nc(-c3ccc(Cl)s3)nc3c1CS(=O)(=O)C3)CC2 [Compound No. 2-57, 2-((1-(2-(5-Chlorothiophen-2-yl)-6,6-dioxido-5,7-dihydrothieno[3,4-d]pyrimidin-4-yl)indolin-6-yl)oxy)-N-(cyclopropylmethyl)-N-methylacetamide]	89	< 100
O=C(COc1ccc2c(c1)N(c1nc(-c3ccc(Cl)s3)nc3c1CS(=O)(=O)C3)CC2)NC1COC1 [Compound No. 2-60, 2-((1-(2-(5-Chlorothiophen-2-yl)-6,6-dioxido-5,7-dihydrothieno[3,4-d]pyrimidin-4-yl)indolin-6-yl)oxy)-N-(oxetan-3-yl)acetamide]	75	100 to 1000
O=C(COc1ccc2c(c1)N(c1nc(-c3ccc(Cl)s3)nc3c1CS(=O)(=O)C3)CC2)NC1CC1 [Compound No. 2-61, 2-((1-(2-(5-Chlorothiophen-2-yl)-6,6-dioxido-5,7-dihydrothieno[3,4-d]pyrimidin-4-yl)indolin-6-yl)oxy)-N-cyclopropylacetamide]	60	< 100
CN(C(=O)COc1ccc2c(c1)N(c1nc(-c3ccc(Cl)s3)nc3c1CCC3)CC2)C1CC1 [Compound No. 2-64, 2-((1-(2-(5-Chlorothiophen-2-yl)-6,7-dihydro-5H-cyclopenta[d]pyrimidin-4-yl)indolin-6-yl)oxy)-N-cyclopropyl-N-methylacetamide]	65	100 to 1000
O=C(COc1ccc2c(c1)N(c1nc(-c3ccc(Cl)s3)nc3c1CCC3)CC2)NC1COC1 [Compound No. 2-65, 2-((1-(2-(5-Chlorothiophen-2-yl)-6,7-dihydro-5H-cyclopenta[d]pyrimidin-4-yl)indolin-6-yl)oxy)-N-(oxetan-3-yl)acetamide]	5	–
CC(C)NC(=O)COc1ccc2c(c1)N(c1nc(-c3ccc(Cl)s3)nc3c1CCC3)CC2 [Compound No. 2-66, 2-((1-(2-(5-Chlorothiophen-2-yl)-6,7-dihydro-5H-cyclopenta[d]pyrimidin-4-yl)indolin-6-yl)oxy)-N-isopropylacetamide]	32	–
